We go through eleven molecules from patent US20090111778A1, “2-Keto-Oxazoles as Modulators of Fatty Acid Amide Hydrolase” (priority 2005, published 2009).

Assay [1] has as its target T1, rat FAAH (Rattus norvegicus, UniProt P97612).
T1 construct: expressed in transfected cells
T1 sequence (P97612 1-579): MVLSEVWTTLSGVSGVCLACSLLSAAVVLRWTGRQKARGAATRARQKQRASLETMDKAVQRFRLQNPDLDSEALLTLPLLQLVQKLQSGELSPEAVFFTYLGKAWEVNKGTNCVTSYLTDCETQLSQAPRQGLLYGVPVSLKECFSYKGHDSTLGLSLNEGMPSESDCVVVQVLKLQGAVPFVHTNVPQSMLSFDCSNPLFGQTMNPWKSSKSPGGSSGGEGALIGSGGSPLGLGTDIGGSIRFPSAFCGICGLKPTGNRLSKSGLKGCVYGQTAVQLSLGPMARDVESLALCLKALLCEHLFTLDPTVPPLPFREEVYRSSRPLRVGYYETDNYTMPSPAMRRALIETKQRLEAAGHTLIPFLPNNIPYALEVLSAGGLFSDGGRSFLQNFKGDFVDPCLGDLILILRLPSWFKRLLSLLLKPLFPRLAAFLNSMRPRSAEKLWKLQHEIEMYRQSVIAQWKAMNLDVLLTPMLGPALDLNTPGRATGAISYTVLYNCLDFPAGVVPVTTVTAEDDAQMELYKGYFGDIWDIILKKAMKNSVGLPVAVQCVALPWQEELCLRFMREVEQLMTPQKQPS
The assay is described as follows: Assay Method 2: FAAH assay, hydrolysis of 3H-anandamide by homogenate of SK-N-MC cells transfected with rat FAAH. The class given is biochemical. As to conditions: T84 or transfected SK-N-MC cell homogenate, 3H-AEA tracer 80 nM, rt 1 h, pH 9. The method in brief: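 Rat FAAH activity from homogenate of G418-selected, electroporated SK-N-MC clones was measured as release of radiolabelled ethanolamine from 3H-anandamide. After 1 h at rt, charcoal filtration retained substrate, and scintillation counting of the flow-through gave the read-out.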

Assay [2] deals with T2, human FAAH (Homo sapiens, UniProt O00519).
T2 construct: expressed in transfected cells
T2 sequence (O00519 1-579): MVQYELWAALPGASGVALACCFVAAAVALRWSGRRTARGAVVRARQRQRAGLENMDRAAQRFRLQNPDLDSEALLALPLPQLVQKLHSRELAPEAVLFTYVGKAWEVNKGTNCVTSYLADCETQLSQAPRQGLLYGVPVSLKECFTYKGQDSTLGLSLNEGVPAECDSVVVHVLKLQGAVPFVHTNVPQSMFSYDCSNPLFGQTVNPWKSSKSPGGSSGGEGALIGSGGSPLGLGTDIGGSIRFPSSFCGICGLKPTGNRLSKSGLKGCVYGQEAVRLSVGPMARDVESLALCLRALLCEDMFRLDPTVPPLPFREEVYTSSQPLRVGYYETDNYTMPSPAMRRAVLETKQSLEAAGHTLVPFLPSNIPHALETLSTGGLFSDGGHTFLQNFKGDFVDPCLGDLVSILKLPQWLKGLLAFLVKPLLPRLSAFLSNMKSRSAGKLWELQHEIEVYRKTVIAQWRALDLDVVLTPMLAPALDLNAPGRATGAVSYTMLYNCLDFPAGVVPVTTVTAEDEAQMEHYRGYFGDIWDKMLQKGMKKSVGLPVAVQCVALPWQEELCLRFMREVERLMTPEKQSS
The assay is described as follows: Assay Method 1: FAAH assay, hydrolysis of 3H-anandamide by homogenate of SK-N-MC cells transfected with human FAAH. As to conditions: human FAAH; T84 or transfected SK-N-MC cell homogenate; 3H-AEA tracer 80 nM; rt 1 h; pH 9; read-out: Assay 1 IC50. The class given is biochemical. A digest of the protocol: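 Homogenate of SK-N-MC cells stably expressing human FAAH (G418-selected clones) incubated with compound and 80 nM [1-3H-ethanolamine]anandamide for 1 h at rt. Released 3H-ethanolamine separated from substrate by activated-charcoal filtration, then counted by scintillation.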

For orientation: IC50 means the point on the concentration scale where inhibition reaches its midpoint.

As for `O=C(CCCC1CCN(Cc2cnc3ccccc3n2)CC1)c1ncco1` [Example 117, 1-Oxazol-2-yl-4-(1-quinoxalin-2-ylmethyl-piperidin-4-yl)-butan-1-one], the IC50 in assay [1] turned out to be 277 nM; in assay [2], 175 nM.

In the case of `Cc1ccc(Oc2ccc(CN3CCC(CCCC(=O)c4ncco4)CC3)cn2)cc1` [Example 96, 1-Oxazol-2-yl-4-[1-(6-p-tolyloxy-pyridin-3-ylmethyl)-piperidin-4-yl]-butan-1-one], the results for the IC50 in assay [1] and in assay [2] were 132 nM and 125 nM, respectively.

On to `N#Cc1cccc(-c2ccc(CN3CCC(CCCC(=O)c4ncco4)CC3)cn2)c1` [Example 112, 3-{5-[4-(4-Oxazol-2-yl-4-oxo-butyl)-piperidin-1-ylmethyl]-pyridin-2-yl}-benzonitrile], for which the IC50 in assay [1] was 174 nM; in assay [2] it was 14 nM.

As for `O=C(CCCC1CCN(Cc2ccc(-c3ccco3)nc2)CC1)c1ncco1` [Example 109, 4-[1-(6-Furan-2-yl-pyridin-3-ylmethyl)-piperidin-4-yl]-1-oxazol-2-yl-butan-1-one], the IC50 in assay [1] was determined as 528 nM; in assay [2], 55 nM.

Take `CC(C)(C)OC(=O)N1CCC(CCCC(=O)c2ncc(-c3ccco3)o2)CC1` [Example 120, 4-[4-(5-Furan-2-yl-oxazol-2-yl)-4-oxo-butyl]-Piperidine-1-carboxylic acid tert-butyl ester]: the IC50 in assay [1] amounted to 21 nM; in assay [2] it was 2 nM.

For the molecule `O=C(CCCC1CCN(Cc2ccc(N3CCCCC3)nc2)CC1)c1ncco1` [Example 108, 1-oxazol-2-yl-4-[1-(3,4,5,6-tetrahydro-2H-[1,2′]bipyridinyl-5′-ylmethyl)-piperidin-4-yl]-butan-1-one], the IC50 in assay [1] is 235 nM; in assay [2] it was 23 nM.

Turning to `O=C(CCCC1CCN(S(=O)(=O)c2ccc(F)cc2)CC1)c1ncco1` [Example 55, 4-[1-(4-Fluoro-benzenesulfonyl)-piperidin-4-yl]-1-oxazol-2-yl-butan-1-one], the 50% inhibitory concentration (IC50) in assay [1] is 95 nM; in assay [2] it was 905 nM.

For the molecule `O=C(CCCC1CCN(C(=O)c2ccccc2)CC1)c1ncco1` [Example 28, 4-(1-Benzoyl-piperidin-4-yl)-1-oxazol-2-yl-butan-1-one], the IC50 in assay [1] worked out at 563 nM; in assay [2], 67 nM.

Turning to `CCc1ccc(CN2CCC(CCCC(=O)c3ncco3)CC2)cc1` [Example 71, 4-[1-(4-Ethyl-benzyl)-piperidin-4-yl]-1-oxazol-2-yl-butan-1-one], the concentration for half-maximal inhibition (IC50) was determined as 49 nM in assay [1] and 7 nM in assay [2].

As for `O=C(CCCC1CCN(Cc2ccccc2Cl)CC1)c1ncco1` [Example 84, 4-[1-(2-Chloro-benzyl)-piperidin-4-yl]-1-oxazol-2-yl-butan-1-one], the concentration for half-maximal inhibition (IC50) in assay [1] is 563 nM; in assay [2], 260 nM.

Turning to `O=C(CCCC1CCN(Cc2ccc3cccnc3n2)CC1)c1ncco1` [Example 116, 4-(1-[1,8]Naphthyridin-2-ylmethyl-piperidin-4-yl)-1-oxazol-2-yl-butan-1-one], the IC50 was 7000 nM in assay [1] and 370 nM in assay [2].
